Values after ≈ are worked out from the molar mass of the structure shown.
Legend:
[1] = Clast in athymic nude mouse xenografted with rat Rat1 cells expressing myr-p110alpha at 20 mg/kg, po measured after 8 days by LC-MS/MS analysis; type: ADME, organism-based; settings: in vivo, time 8 day, read-out: Clast
[2] = Apparent permeability across basolateral to apical side in human Caco-2 cells at 10 uM measured after 120 mins by LC-MS/MS analysis; type: ADME, cell-based
Rat1 [3] = test: Antitumor activity at rat Rat1 cells expressing myr-p110delta xenografted in athymic nude mouse assessed as T/C ratio at 20 mg/kg, po bid measured after 7 to 15 days; type: functional; settings: time 7-15 day
[4] = AUC(0 to Tlast) in athymic nude mouse xenografted with rat Rat1 cells expressing myr-p110alpha at 10 mg/kg, po measured after 8 days by LC-MS/MS analysis; type: ADME, organism-based; design: time 8 day, dose 10 mg/kg, route po; settings: in vivo
[5] = Oral bioavailability in OF1 mouse plasma at 10 mg/kg measured upto 24 hrs by LC-MS/MS analysis; type: ADME, organism-based
[6] = Clast in athymic nude mouse xenografted with rat Rat1 cells expressing myr-p110alpha at 3 mg/kg, po measured after 8 days by LC-MS/MS analysis; type: ADME, organism-based; settings: in vivo, time 8 day, read-out: Clast
[7] = Dose normalized AUC in beagle dog at 0.1 mg/kg, iv measured upto 24 hrs by LC-MS/MS analysis; type: ADME, organism-based, Canis lupus familiaris; settings: in vivo
[8] = target: Serine/threonine-protein kinase mTOR (Homo sapiens, UniProt P42345); test: Displacement of Alexa Fluor labelled Tracer-314 from human N-terminal GST-tagged mTOR incubated for 1 hr by TR-FRET assay
[9] = Drug concentration in OF1 mouse brain at 1 mg/kg, iv measured at 1 hr post dose by LC-MS/MS analysis; type: ADME, organism-based; settings: in vivo
Rat1 [10] = test: Antitumor activity at rat Rat1 cells expressing myr-p110alpha xenografted in athymic nude mouse assessed as T/C ratio at 20 mg/kg, po qd measured after 14 to 22 days; type: functional; settings: time 14-22 day
[11] = Toxicity in athymic nude mouse xenografted with human HBRX2524 cells assessed as change in body weight at 40 mg/kg, po qd measured upto 16 days; type: organism-based; settings: in vivo, 384 h, time < 16 day
[12] = Tlast in athymic nude mouse xenografted with rat Rat1 cells expressing myr-p110alpha at 40 mg/kg, po measured after 8 days by LC-MS/MS analysis; type: ADME, organism-based; settings: in vivo, 192 h, time 8 day
[13] = Inhibition of wild type PI3K in human HCC1143 cells assessed as reduction in phosphorylation of AKT at Ser473 residue by Western blot analysis; type: cell-based
[14] = Tlast in athymic nude mouse xenografted with rat Rat1 cells expressing myr-p110alpha at 10 mg/kg, po measured after 8 days by LC-MS/MS analysis; type: ADME, organism-based; settings: in vivo, 192 h, time 8 day
[15] = Apparent permeability across apical to basolateral side in human Caco-2 cells at 10 uM measured after 120 mins by LC-MS/MS analysis; type: ADME, cell-based
[16] = Tmax in beagle dog at 0.3 mg/kg, po measured upto 24 hrs by LC-MS/MS analysis; type: ADME, organism-based, Canis lupus familiaris; settings: in vivo
[17] = AUCinfinity in Beagle dog at 5.4 mg/kg, po measured upto 24 hrs using PVP-ASD form of sample by LC-MS/MS analysis; type: ADME, organism-based, Canis lupus familiaris; design: time < 24 hrs, dose 5.4 mg/kg, route po; settings: in vivo
[18] = Effect on plasma insulin level in athymic nude mouse xenografted with rat Rat1 cells expressing myr-p110alpha at 20 mg/kg, po qd measured for 1 to 10 hrs by glucometer analysis; type: toxicity, organism-based; settings: in vivo, time 1-10 hrs
[19] = Tmax in Sprague-Dawley rat at 100 mg/kg, po measured upto 24 hrs by LC-MS/MS analysis; type: ADME, organism-based; settings: in vivo
[20] = Cmax in Beagle dog at 6 mg/kg, po measured upto 24 hrs using crystalline form of sample by LC-MS/MS analysis; type: ADME, organism-based, Canis lupus familiaris; design: dose 6 mg/kg, time < 24 hrs, route po; settings: in vivo
[21] = AUC(0 to Tlast) in athymic nude mouse xenografted with rat Rat1 cells expressing myr-p110alpha at 40 mg/kg, po measured after 8 days by LC-MS/MS analysis; type: ADME, organism-based; design: time 8 day, dose 40 mg/kg, route po; settings: in vivo
[22] = Cmax in athymic nude mouse xenografted with rat Rat1 cells expressing myr-p110alpha at 3 mg/kg, po measured after 8 days by LC-MS/MS analysis; type: ADME, organism-based; design: time 8 day, dose 3 mg/kg, route po; settings: in vivo
Rat1 [23] = test: Antitumor activity at rat Rat1 cells expressing myr-p110alpha xenografted in athymic nude mouse assessed as tumor growth inhibition at 40 mg/kg, po bid measured after 9 days; type: functional; settings: Rat1, 216 h, time 9 day
Rat1 [24] = test: Antitumor activity at rat Rat1 cells expressing myr-p110alpha xenografted in athymic nude mouse assessed as T/C ratio at 3 mg/kg, po qd measured after 14 to 22 days; type: functional; settings: time 14-22 day
[25] = Tlast in athymic nude mouse xenografted with rat Rat1 cells expressing myr-p110alpha at 3 mg/kg, po measured after 8 days by LC-MS/MS analysis; type: ADME, organism-based; settings: in vivo, 192 h, time 8 day
[26] = Volume of distribution at steady state in beagle dog at 0.3 mg/kg,po or 0.1 mg/kg,iv measured upto 24 hrs by LC-MS/MS analysis; type: ADME, organism-based, Canis lupus familiaris; settings: in vivo
[27] = Tmax in Sprague-Dawley rat at 30 mg/kg, po measured upto 24 hrs by LC-MS/MS analysis; type: ADME, organism-based; settings: in vivo
[28] = Apparent permeability in human Caco-2 cells assessed as Km by Michaelis-Menten based analysis; type: ADME, cell-based; settings: read-out: Km(app)
[29] = Dose normalized AUC in Sprague-Dawley rat at 30 mg/kg, po measured upto 24 hrs by LC-MS/MS analysis; type: ADME, organism-based; settings: in vivo
[30] = In vivo Inhibition of AKT phosphorylation at Ser473 residue in plasma of athymic nude mouse xenografted with rat Rat1 cells expressing myr-p110alpha; type: functional, organism-based
[31] = AUCinfinity in Beagle dog at 6 mg/kg, po measured upto 24 hrs using crystalline form of sample by LC-MS/MS analysis; type: ADME, organism-based, Canis lupus familiaris; design: dose 6 mg/kg, time < 24 hrs, route po; settings: in vivo
[32] = Half life in Beagle dog at 6 mg/kg, po measured upto 24 hrs using crystalline form of sample by LC-MS/MS analysis; type: ADME, organism-based, Canis lupus familiaris; settings: in vivo
[33] = Lipophilicity, logD of compound at pH 6.5; type: physicochemical; settings: buffer
[34] = Dose normalized Cmax in Sprague-Dawley rat at 3 mg/kg, po measured upto 24 hrs by LC-MS/MS analysis; type: ADME, organism-based; settings: in vivo
[35] = Tmax in OF1 mouse at 10 mg/kg,po or 3 mg/kg,iv measured upto 24 hrs by LC-MS/MS analysis; type: ADME, organism-based; settings: in vivo
[36] = Aqueous solubility of compound in buffer at pH 7.4 by HPLC analysis; type: physicochemical
cells = settings: Homo sapiens, U-87 MG, 16 h
Rat1 [37] = test: Antitumor activity at rat Rat1 cells expressing myr-p110alpha xenografted in athymic nude mouse assessed as tumor growth inhibition at 20 mg/kg, po bid measured after 9 days; type: functional; settings: Rat1, 216 h, time 9 day
[38] = Minimal apparent permeability across apical to basolateral side in human Caco-2 cells at 0.25 to 30 uM measured after 120 mins by LC-MS/MS analysis; type: ADME, cell-based; settings: dose 0.25-30 µM
[39] = Inhibition of PI3K PTEN mutant in human BT-549 cells assessed as reduction in phosphorylation of AKT at Ser473 residue by Western blot analysis; type: cell-based

C[C@H]1OC(=O)N(c2nc(-c3cnc(N)nc3C(F)(F)F)cc(N3CCOCC3)n2)[C@H]1CO
concentration at 192 h [1]: 110 nM
Papp B→A at 2 h, 10 µM [2]: 19 ×10⁻⁶ cm/s
T/C (Rat1 [3]): -0.52
AUC(0-t) at 192 h [4]: 16 µM·h
bioavailability [5]: 49%
concentration at 192 h [6]: 3 nM
AUC/dose [7]: 11213 nM·h
IC50 [8]: 2470 nM
Ct [9]: 31 pmol/g
T/C (Rat1 [10]): 0.04
Activity [11]: Non-Toxic
Tlast [12]: 24 h
IC50 [13]: 26 nM
Tlast [14]: 14 h
Papp A→B at 2 h, 10 µM [15]: 8.9 ×10⁻⁶ cm/s
Tmax [16]: 1 h
AUC(0-inf) [17]: 152 µM·h
Activity [18]: Toxic
Tmax [19]: 24 h
Cmax [20]: 1240 nM
AUC(0-t) at 192 h [21]: 54 µM·h
Cmax [22]: 1480 nM
inhibition in vivo at 40 mg/kg (Rat1 [23]): > 80%
T/C (Rat1 [24]): 0.43
Tlast [25]: 14 h
Vdss [26]: 1.5 L/kg
Tmax [27]: 4 h
Km [28]: > 30 µM
AUC/dose [29]: 913 nM·h
IC80 [30]: 800 nM
IC50 ([30]; Mus musculus): 200 nM
AUC(0-inf) [31]: 44.6 µM·h
half-life [32]: 12.9 h
logD [33]: 2
Cmax/dose [34]: 213 nM
Tmax [35]: 0.5 h
solubility [36]: 26 µM (≈ 11.8 µg/mL)
IC50 (cells): 100 nM
inhibition in vivo at 20 mg/kg (Rat1 [37]): > 80%
Papp A→B at 2 h, up to 30 µM [38]: 2.5 ×10⁻⁶ cm/s
IC50 [39]: 99 nM

From ChEMBL document CHEMBL5137017, “Identification of NVP-CLR457 as an Orally Bioavailable Non-CNS-Penetrant pan-Class IA Phosphoinositol-3-Kinase Inhibitor” (J Med Chem, 2022)
